One data set has as its system Hepatotoxicity. The experiment in a line: FDA HLAED, lactate dehydrogenase (LDH) increase. As to conditions: human.
With `Nc1ccc(O)c(C(=O)O)c1` [MESALAMINE], the “LDH Increase - Activity Score” value is “Inactive”, the “LDH Increase - Index Value” is reported as 1.1 and the “LDH Increase - Number of Reports” value is reported as “>= 4”.

In the case of `O=S(=O)([O-])CCS.[Na+]` [MESNA], the “LDH Increase - Activity Score” value is “Inactive”, the “LDH Increase - Index Value” is 5 and the “LDH Increase - Number of Reports” value was < 4.

`CN(C)C(=N)N=C(N)N` [METFORMIN]: the “LDH Increase - Activity Score” value was “Inactive”, the “LDH Increase - Index Value” is given as 0 and the “LDH Increase - Number of Reports” value is < 4.

Consider `CC(=O)Oc1c(C)cc(OCC(O)CNC(C)C)c(C)c1C` (stereo unspecified) [METIPRANOLOL], for which the “LDH Increase - Activity Score” value is on record as “Inactive”, the “LDH Increase - Index Value” amounted to 0 and the “LDH Increase - Number of Reports” value was < 4.

As for `CCN(CC)CCNC(=O)c1cc(Cl)c(N)cc1OC` [METOCLOPRAMIDE], the “LDH Increase - Activity Score” value is given as “Inactive”, the “LDH Increase - Index Value” worked out at 0 and the “LDH Increase - Number of Reports” value is recorded as < 4.

`COCCc1ccc(OCC(O)CNC(C)C)cc1` (stereo unspecified) [METOPROLOL]: the “LDH Increase - Activity Score” value is “Inactive”, the “LDH Increase - Index Value” is listed as 0.3 and the “LDH Increase - Number of Reports” value is recorded as < 4.

`C[C@](N)(Cc1ccc(O)cc1)C(=O)O` [METYROSINE]: the “LDH Increase - Activity Score” value is “Inactive”, the “LDH Increase - Index Value” was 0 and the “LDH Increase - Number of Reports” value is < 4.

A further data set relates to Hepatotoxicity. Nature of the data set: FDA HLAED, alkaline phosphatase increase. As to conditions: human.
For `Nc1ccc(O)c(C(=O)O)c1` [MESALAMINE], the “Alkaline Phosphatase Increase - Activity Score” value was “Inactive”, the “Alkaline Phosphatase Increase - Index Value” was 1.3 and the “Alkaline Phosphatase Increase - Number of Reports” value is recorded as “>= 4”.

Take `O=S(=O)([O-])CCS.[Na+]` [MESNA]: the “Alkaline Phosphatase Increase - Activity Score” value is “Inactive”, the “Alkaline Phosphatase Increase - Index Value” worked out at 0 and the “Alkaline Phosphatase Increase - Number of Reports” value was < 4.

With `CN(C)C(=N)N=C(N)N` [METFORMIN], the “Alkaline Phosphatase Increase - Activity Score” value is recorded as “Inactive”, the “Alkaline Phosphatase Increase - Index Value” is 0 and the “Alkaline Phosphatase Increase - Number of Reports” value is given as < 4.

For `CC(=O)Oc1c(C)cc(OCC(O)CNC(C)C)c(C)c1C` (stereo unspecified) [METIPRANOLOL], the “Alkaline Phosphatase Increase - Activity Score” value is recorded as “Inactive”, the “Alkaline Phosphatase Increase - Index Value” stood at 0 and the “Alkaline Phosphatase Increase - Number of Reports” value was < 4.

With `CCN(CC)CCNC(=O)c1cc(Cl)c(N)cc1OC` [METOCLOPRAMIDE], the “Alkaline Phosphatase Increase - Activity Score” value is given as “Inactive”, the “Alkaline Phosphatase Increase - Index Value” is “No Shipping Units” and the “Alkaline Phosphatase Increase - Number of Reports” value is listed as < 4.

As for `COCCc1ccc(OCC(O)CNC(C)C)cc1` (stereo unspecified) [METOPROLOL], the “Alkaline Phosphatase Increase - Activity Score” value is reported as “Inactive”, the “Alkaline Phosphatase Increase - Index Value” worked out at 0.4 and the “Alkaline Phosphatase Increase - Number of Reports” value is recorded as “>= 4”.

Regarding `C[C@](N)(Cc1ccc(O)cc1)C(=O)O` [METYROSINE], the “Alkaline Phosphatase Increase - Activity Score” value is listed as “Inactive”, the “Alkaline Phosphatase Increase - Index Value” was 0 and the “Alkaline Phosphatase Increase - Number of Reports” value was < 4.

In another data set the test system is Hepatotoxicity. The experiment in a line: FDA HLAED, serum glutamic pyruvic transaminase (SGPT) increase. As to conditions: human.
As for `Nc1ccc(O)c(C(=O)O)c1` [MESALAMINE], the “SGPT Increase - Activity Score” value is “Inactive”, the “SGPT Increase - Index Value” is 1.8 and the “SGPT Increase - Number of Reports” value was “>= 4”.

In the case of `O=S(=O)([O-])CCS.[Na+]` [MESNA], the “SGPT Increase - Activity Score” value is recorded as “Inactive”, the “SGPT Increase - Index Value” is listed as 0 and the “SGPT Increase - Number of Reports” value is on record as < 4.

With `CN(C)C(=N)N=C(N)N` [METFORMIN], the “SGPT Increase - Activity Score” value is “Inactive”, the “SGPT Increase - Index Value” was determined as 0 and the “SGPT Increase - Number of Reports” value is < 4.

`CC(=O)Oc1c(C)cc(OCC(O)CNC(C)C)c(C)c1C` (stereo unspecified) [METIPRANOLOL]: the “SGPT Increase - Activity Score” value is reported as “Inactive”, the “SGPT Increase - Index Value” turned out to be 0 and the “SGPT Increase - Number of Reports” value is < 4.

For the molecule `CCN(CC)CCNC(=O)c1cc(Cl)c(N)cc1OC` [METOCLOPRAMIDE], the “SGPT Increase - Activity Score” value is on record as “Inactive”, the “SGPT Increase - Index Value” was 0 and the “SGPT Increase - Number of Reports” value is listed as < 4.

With `COCCc1ccc(OCC(O)CNC(C)C)cc1` (stereo unspecified) [METOPROLOL], the “SGPT Increase - Activity Score” value is on record as “Inactive”, the “SGPT Increase - Index Value” is 0.5 and the “SGPT Increase - Number of Reports” value was “>= 4”.

Turning to `C[C@](N)(Cc1ccc(O)cc1)C(=O)O` [METYROSINE], the “SGPT Increase - Activity Score” value is “Inactive”, the “SGPT Increase - Index Value” is reported as 0 and the “SGPT Increase - Number of Reports” value is listed as < 4.

In a further data set the test system is Hepatotoxicity. The experiment in a line: FDA HLAED, serum glutamic oxaloacetic transaminase (SGOT) increase. As to conditions: human.
As for `Nc1ccc(O)c(C(=O)O)c1` [MESALAMINE], the “SGOT Increase - Activity Score” value is “Inactive”, the “SGOT Increase - Index Value” was 2.2 and the “SGOT Increase - Number of Reports” value was “>= 4”.

Regarding `O=S(=O)([O-])CCS.[Na+]` [MESNA], the “SGOT Increase - Activity Score” value is on record as “Inactive”, the “SGOT Increase - Index Value” is 5 and the “SGOT Increase - Number of Reports” value is reported as < 4.

For the molecule `CN(C)C(=N)N=C(N)N` [METFORMIN], the “SGOT Increase - Activity Score” value is “Inactive”, the “SGOT Increase - Index Value” came out at 0 and the “SGOT Increase - Number of Reports” value was < 4.

Turning to `CC(=O)Oc1c(C)cc(OCC(O)CNC(C)C)c(C)c1C` (stereo unspecified) [METIPRANOLOL], the “SGOT Increase - Activity Score” value is on record as “Inactive”, the “SGOT Increase - Index Value” is 0 and the “SGOT Increase - Number of Reports” value was < 4.

As for `CCN(CC)CCNC(=O)c1cc(Cl)c(N)cc1OC` [METOCLOPRAMIDE], the “SGOT Increase - Activity Score” value is “Inactive”, the “SGOT Increase - Index Value” was determined as 0 and the “SGOT Increase - Number of Reports” value is recorded as < 4.

`COCCc1ccc(OCC(O)CNC(C)C)cc1` (stereo unspecified) [METOPROLOL]: the “SGOT Increase - Activity Score” value is on record as “Inactive”, the “SGOT Increase - Index Value” is on record as 0.5 and the “SGOT Increase - Number of Reports” value is listed as “>= 4”.

On to `C[C@](N)(Cc1ccc(O)cc1)C(=O)O` [METYROSINE], for which the “SGOT Increase - Activity Score” value is reported as “Inactive”, the “SGOT Increase - Index Value” was 0 and the “SGOT Increase - Number of Reports” value was < 4.

For the next data set, the system named is Hepatotoxicity. Nature of the data set: FDA HLAED, gamma-glutamyl transferase (GGT) increase. As to conditions: human.
Regarding `Nc1ccc(O)c(C(=O)O)c1` [MESALAMINE], the “GGT Increase - Activity Score” value is recorded as “Inactive”, the “GGT Increase - Index Value” is 1.5 and the “GGT Increase - Number of Reports” value is recorded as “>= 4”.

As to `O=S(=O)([O-])CCS.[Na+]` [MESNA], the “GGT Increase - Activity Score” value is recorded as “Inactive”, the “GGT Increase - Index Value” amounted to 0 and the “GGT Increase - Number of Reports” value is recorded as < 4.

`CN(C)C(=N)N=C(N)N` [METFORMIN]: the “GGT Increase - Activity Score” value was “Inactive”, the “GGT Increase - Index Value” is reported as 0 and the “GGT Increase - Number of Reports” value was < 4.

As for `CC(=O)Oc1c(C)cc(OCC(O)CNC(C)C)c(C)c1C` (stereo unspecified) [METIPRANOLOL], the “GGT Increase - Activity Score” value is “Inactive”, the “GGT Increase - Index Value” is recorded as 0 and the “GGT Increase - Number of Reports” value is recorded as < 4.

In the case of `CCN(CC)CCNC(=O)c1cc(Cl)c(N)cc1OC` [METOCLOPRAMIDE], the “GGT Increase - Activity Score” value is given as “Inactive”, the “GGT Increase - Index Value” came to 0 and the “GGT Increase - Number of Reports” value is < 4.

As for `COCCc1ccc(OCC(O)CNC(C)C)cc1` (stereo unspecified) [METOPROLOL], the “GGT Increase - Activity Score” value is “Inactive”, the “GGT Increase - Index Value” worked out at 0 and the “GGT Increase - Number of Reports” value is < 4.

For the molecule `C[C@](N)(Cc1ccc(O)cc1)C(=O)O` [METYROSINE], the “GGT Increase - Activity Score” value is “Inactive”, the “GGT Increase - Index Value” is recorded as 0 and the “GGT Increase - Number of Reports” value is given as < 4.

A further data set concerns Hepatotoxicity. The experiment in a line: FDA HLAED, liver enzyme composite activity. As to conditions: human.
Regarding `Nc1ccc(O)c(C(=O)O)c1` [MESALAMINE], the “Composite Activity - Active” value is 0, the “Composite Activity - Marginal” value is recorded as 0 and the “Composite Activity - Score” value is on record as “Inactive”.

As to `O=S(=O)([O-])CCS.[Na+]` [MESNA], the “Composite Activity - Active” value was 0, the “Composite Activity - Marginal” value was 0 and the “Composite Activity - Score” value is “Inactive”.

On to `CC(=O)Oc1c(C)cc(OCC(O)CNC(C)C)c(C)c1C` (stereo unspecified) [METIPRANOLOL], for which the “Composite Activity - Active” value is 0, the “Composite Activity - Marginal” value is given as 0 and the “Composite Activity - Score” value is “Inactive”.

`CCN(CC)CCNC(=O)c1cc(Cl)c(N)cc1OC` [METOCLOPRAMIDE]: the “Composite Activity - Active” value stood at 0, the “Composite Activity - Marginal” value was determined as 0 and the “Composite Activity - Score” value is listed as “Inactive”.

As for `COCCc1ccc(OCC(O)CNC(C)C)cc1` (stereo unspecified) [METOPROLOL], the “Composite Activity - Active” value is listed as 0, the “Composite Activity - Marginal” value was found to be 0 and the “Composite Activity - Score” value is reported as “Inactive”.

The same data set, now with this note: human, Liver.
Consider `CN(C)C(=N)N=C(N)N` [METFORMIN], for which the “Composite Activity - Active” value is given as 0, the “Composite Activity - Marginal” value came out at 0 and the “Composite Activity - Score” value was “Inactive”.

For the molecule `C[C@](N)(Cc1ccc(O)cc1)C(=O)O` [METYROSINE], the “Composite Activity - Active” value came out at 0, the “Composite Activity - Marginal” value was found to be 0 and the “Composite Activity - Score” value is “Inactive”.
For GGT Increase - Index Value in this document: reference of the scale not given here.
For LDH Increase - Index Value in this document: reference of the scale not given here.
